Source: patent US12428422B2, “Purine derivatives as SIK-3 inhibitors” (RHIZEN PHARMACEUTICALS AG, priority 2020, dated 2025)

Experiments:
SIK3 (human) = SIK3 (human) (Homo sapiens, UniProt Q9Y2K2); assay: Enzymatic radiometric assay against human salt-inducible kinase-3 (SIK3); type: biochemical; conditions: at a concentration of 1 μM; read-out: inhibition of SIK-3 activity
Procedure: Assay 1: Determination of IC50 of Compound M1 Against Human Salt-Inducible Kinase-3 (SIK3) Using an Enzymatic Radiometric Assay
• SIK3 (human) was incubated with 8 mM MOPS pH 7.0, 0.2 mM EDTA, 100 uM of the peptide […] (Substrate), 10 mM Mg Acetate and [gamma-33P-ATP] (specific activity and concentration as required) in the presence of Compound M1. • The reaction was initiated by the addition of the Mg/ATP mix. • After incubation for 40 minutes at room temperature, the reaction was stopped by the addition of phosphoric acid to a concentration of 0.5%. • 10 μL of the reaction mixture was then spotted onto a P30 filtermat and washed four times for 4 minutes in 0.425% phosphoric acid and once in methanol prior to drying and scintillation counting. • The IC50 value was calculated using GraphPad Prism.

6 isoform of PI3K = 6 isoform of PI3K (Homo sapiens, UniProt O00329); conditions: background statement; cited from earlier work
6 isoform of PI3K, sequence (O00329 whole entry, canonical isoform): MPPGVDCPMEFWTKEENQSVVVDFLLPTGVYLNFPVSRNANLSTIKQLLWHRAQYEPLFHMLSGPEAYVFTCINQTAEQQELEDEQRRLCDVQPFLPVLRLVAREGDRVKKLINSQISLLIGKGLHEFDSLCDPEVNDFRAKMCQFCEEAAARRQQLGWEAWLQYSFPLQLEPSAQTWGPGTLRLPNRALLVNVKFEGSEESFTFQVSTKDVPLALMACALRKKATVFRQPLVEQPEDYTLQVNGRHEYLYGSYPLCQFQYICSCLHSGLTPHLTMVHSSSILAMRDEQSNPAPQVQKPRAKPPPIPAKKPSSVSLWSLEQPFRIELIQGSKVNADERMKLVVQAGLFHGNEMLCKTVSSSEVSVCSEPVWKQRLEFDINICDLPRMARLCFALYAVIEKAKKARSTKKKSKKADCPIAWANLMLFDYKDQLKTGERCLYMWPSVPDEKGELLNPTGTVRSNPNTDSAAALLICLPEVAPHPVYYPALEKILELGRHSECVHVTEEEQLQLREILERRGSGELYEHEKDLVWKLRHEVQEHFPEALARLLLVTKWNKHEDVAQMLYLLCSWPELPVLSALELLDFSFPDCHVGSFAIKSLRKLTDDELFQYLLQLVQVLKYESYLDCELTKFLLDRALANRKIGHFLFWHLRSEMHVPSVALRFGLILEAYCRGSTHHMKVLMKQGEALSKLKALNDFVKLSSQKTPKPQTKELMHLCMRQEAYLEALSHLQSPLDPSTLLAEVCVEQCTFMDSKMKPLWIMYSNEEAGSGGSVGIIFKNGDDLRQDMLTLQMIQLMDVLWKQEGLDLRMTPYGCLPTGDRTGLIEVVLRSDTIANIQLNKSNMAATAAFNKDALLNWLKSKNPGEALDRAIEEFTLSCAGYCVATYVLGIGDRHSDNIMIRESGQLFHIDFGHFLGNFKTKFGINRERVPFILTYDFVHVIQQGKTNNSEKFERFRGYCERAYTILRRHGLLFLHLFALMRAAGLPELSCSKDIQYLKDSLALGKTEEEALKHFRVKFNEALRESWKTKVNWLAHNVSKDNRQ
6 isoform of PI3K, sequence (P27986 whole entry partner, canonical isoform): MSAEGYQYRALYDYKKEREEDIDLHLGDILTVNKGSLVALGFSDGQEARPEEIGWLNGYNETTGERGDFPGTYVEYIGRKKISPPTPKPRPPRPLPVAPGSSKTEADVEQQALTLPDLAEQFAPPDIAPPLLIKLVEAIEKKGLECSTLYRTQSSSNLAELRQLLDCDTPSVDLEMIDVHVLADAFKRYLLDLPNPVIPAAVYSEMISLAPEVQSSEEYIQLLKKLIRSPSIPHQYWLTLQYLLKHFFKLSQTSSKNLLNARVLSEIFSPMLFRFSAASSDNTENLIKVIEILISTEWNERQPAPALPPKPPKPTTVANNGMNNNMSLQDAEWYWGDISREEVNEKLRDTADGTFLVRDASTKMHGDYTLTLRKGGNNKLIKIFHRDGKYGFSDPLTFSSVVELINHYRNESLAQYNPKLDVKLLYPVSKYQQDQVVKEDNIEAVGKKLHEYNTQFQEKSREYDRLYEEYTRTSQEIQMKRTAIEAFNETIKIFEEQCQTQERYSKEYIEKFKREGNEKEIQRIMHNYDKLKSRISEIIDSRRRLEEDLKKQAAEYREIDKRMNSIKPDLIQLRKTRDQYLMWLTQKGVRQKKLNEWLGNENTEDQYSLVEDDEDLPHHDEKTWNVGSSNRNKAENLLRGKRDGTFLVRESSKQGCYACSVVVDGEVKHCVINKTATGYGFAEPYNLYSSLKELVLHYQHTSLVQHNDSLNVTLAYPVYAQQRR

[1] = Pharmacokinetic evaluation of patient plasma samples from a human clinical trial; type: in vivo; conditions: metabolite is Compound M1
y isoform of PI3K = y isoform of PI3K (Homo sapiens, UniProt P48736); conditions: background statement; cited from earlier work
y isoform of PI3K, sequence (P48736 whole entry, canonical isoform): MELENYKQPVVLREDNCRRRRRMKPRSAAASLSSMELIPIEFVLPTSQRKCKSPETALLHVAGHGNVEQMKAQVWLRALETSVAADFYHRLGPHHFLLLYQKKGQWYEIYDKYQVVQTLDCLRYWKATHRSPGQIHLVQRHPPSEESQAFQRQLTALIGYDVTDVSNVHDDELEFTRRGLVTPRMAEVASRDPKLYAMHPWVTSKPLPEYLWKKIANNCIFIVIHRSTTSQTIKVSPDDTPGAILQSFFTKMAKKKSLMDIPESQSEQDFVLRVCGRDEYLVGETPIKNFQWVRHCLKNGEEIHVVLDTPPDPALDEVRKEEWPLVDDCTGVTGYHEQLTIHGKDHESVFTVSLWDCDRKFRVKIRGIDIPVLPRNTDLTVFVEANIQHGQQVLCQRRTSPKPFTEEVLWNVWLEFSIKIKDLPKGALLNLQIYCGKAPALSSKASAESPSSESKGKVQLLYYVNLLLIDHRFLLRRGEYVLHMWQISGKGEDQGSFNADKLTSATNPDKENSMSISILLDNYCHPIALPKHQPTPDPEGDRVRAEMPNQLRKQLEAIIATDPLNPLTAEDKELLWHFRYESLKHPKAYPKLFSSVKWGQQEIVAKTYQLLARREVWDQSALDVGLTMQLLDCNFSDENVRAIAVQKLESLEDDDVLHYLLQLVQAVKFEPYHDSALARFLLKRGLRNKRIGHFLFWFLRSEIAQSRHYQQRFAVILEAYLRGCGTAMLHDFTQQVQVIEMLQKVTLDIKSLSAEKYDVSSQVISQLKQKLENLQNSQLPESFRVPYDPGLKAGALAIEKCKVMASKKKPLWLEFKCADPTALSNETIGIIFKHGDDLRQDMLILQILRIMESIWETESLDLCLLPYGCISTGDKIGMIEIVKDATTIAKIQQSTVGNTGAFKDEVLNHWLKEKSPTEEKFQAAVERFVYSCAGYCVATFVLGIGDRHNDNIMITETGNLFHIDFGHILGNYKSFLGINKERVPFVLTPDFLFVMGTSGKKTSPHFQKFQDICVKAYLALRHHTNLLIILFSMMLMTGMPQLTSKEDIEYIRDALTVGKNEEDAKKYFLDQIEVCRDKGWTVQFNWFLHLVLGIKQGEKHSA

SIK3 (human), sequence (Q9Y2K2 whole entry): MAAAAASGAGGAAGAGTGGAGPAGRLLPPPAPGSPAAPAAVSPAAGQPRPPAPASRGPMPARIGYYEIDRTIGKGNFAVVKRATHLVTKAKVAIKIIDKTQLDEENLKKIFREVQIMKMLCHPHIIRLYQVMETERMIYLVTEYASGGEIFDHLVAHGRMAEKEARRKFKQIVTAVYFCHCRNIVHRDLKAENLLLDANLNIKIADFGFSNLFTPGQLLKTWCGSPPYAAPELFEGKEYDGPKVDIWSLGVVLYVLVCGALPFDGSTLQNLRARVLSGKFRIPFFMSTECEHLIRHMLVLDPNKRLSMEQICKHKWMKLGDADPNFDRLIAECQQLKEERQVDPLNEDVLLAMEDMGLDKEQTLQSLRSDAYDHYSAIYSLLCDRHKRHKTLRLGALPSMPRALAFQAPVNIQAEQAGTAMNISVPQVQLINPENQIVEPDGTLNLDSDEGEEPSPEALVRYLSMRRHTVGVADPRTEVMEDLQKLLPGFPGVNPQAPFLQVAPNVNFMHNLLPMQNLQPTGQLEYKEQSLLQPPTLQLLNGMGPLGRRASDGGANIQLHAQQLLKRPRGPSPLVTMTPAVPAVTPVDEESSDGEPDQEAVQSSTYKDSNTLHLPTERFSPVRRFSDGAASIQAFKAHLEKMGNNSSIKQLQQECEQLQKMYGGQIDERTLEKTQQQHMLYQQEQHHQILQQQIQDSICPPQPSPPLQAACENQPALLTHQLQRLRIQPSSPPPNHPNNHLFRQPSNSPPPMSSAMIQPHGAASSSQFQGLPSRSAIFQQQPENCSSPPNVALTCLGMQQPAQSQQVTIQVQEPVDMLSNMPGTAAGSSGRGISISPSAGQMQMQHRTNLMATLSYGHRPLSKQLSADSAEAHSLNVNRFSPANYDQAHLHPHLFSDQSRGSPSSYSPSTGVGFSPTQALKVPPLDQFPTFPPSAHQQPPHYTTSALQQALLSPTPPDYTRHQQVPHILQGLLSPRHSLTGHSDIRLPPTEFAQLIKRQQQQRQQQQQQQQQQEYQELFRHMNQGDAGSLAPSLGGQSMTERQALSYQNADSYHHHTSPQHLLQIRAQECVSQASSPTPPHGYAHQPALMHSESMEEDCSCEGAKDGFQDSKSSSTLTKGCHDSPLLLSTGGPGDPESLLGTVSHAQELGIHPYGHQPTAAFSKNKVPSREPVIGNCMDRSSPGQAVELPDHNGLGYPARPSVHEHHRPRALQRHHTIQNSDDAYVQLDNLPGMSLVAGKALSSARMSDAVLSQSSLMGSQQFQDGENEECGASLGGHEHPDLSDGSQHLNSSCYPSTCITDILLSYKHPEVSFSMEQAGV

Question: With `CC[C@@H](Nc1ncnc2[nH]c(O)nc12)c1oc2ccccc2c(=O)c1-c1cccc(F)c1` [Compound M2, (R)-3-(3-fluorophenyl)-2-(1-((8-hydroxy-9H-purin-6-yl)amino)propyl)-4H-chromen-4-one] as the compound, how does the inhibition at 1 µM (SIK3 (human)) read?
Answer: 100%

Question: For `CC[C@H](Nc1ncnc2nc[nH]c12)c1oc2ccccc2c(=O)c1-c1cccc(F)c1` [Tenalisib, 3-(3-fluorophenyl)-2-[(1S)-1-(7H-purin-6-ylamino)propyl]-chromen-4-one], which “potency against the 6 isoform of PI3K” value (6 isoform of PI3K) is on record?
Answer: nanomolar potency

Question: What about the “metabolism in patients (metabolite formation)” value [1] of the same compound?
Answer: underwent metabolism to produce in some subjects

Question: And the “potency against the 7 isoform of PI3K” value (y isoform of PI3K)?
Answer: nanomolar potency
